This is an account of results in patent publication US20170368134A1, “PROTEASOME INHIBITORS FOR TREATING A DISORDER RELATED TO AN ACCUMULATION OF NON-DEGRADED ABNORMAL PROTEIN OR A CANCER” (UNIVERSITÉ D'AIX-MARSEILLE, priority 2015, published 2017).

The structures appear in SMILES notation. Peptide text beside a SMILES is read from it. * marks the point of attachment. Cbz = O=C(OCc1ccccc1)*

What all share (type): cell-based, human
One assay relates to lamin C. The assay is described as follows: Western blot of lamin C protein in HGPS fibroblasts. The note with it: 48 h treatment with MG132 (10 μM). The protocol:
(§1) Total fibroblast proteins were extracted in 200 μL of NP40 Cell Lysis buffer (Invitrogen, Carlsbad, Calif.) containing Protease and Phosphatase Inhibitor Cocktail (Thermo Scientific). Alternatively, cells were lysed with urea (8 M urea, 5 mM dithiothreitol, 150 mM NaCl, 50 mM Tris-Cl pH 7.5, protease and phosphatase Inhibitor Cocktail (Thermo Scientific)). Cells were sonicated twice (30 sec each), incubated at 4° C. for 30 minutes and then centrifuged at 10,000 g for 10 minutes. Protein concentration was evaluated with the bicinchoninic acid technique (Pierce BCA Protein Assay Kit), absorbance at 562 nm is measured using nanodrop 1000 (Thermo Fisher Scientific Inc.) Equal amounts of proteins (40 μg) were loaded onto 10% Tis-Glycine gel (Criterion™ XT precast gel) using XT Tricine running Buffer (Biorad, USA). After electrophoresis, gels were electro transferred onto nitrocellulose membranes or Immobilon-FL polyvinylidene fluoride membranes (Millipore), blocked in Odyssey Blocking Buffer diluted 1:1 in PBS for 1 hour at room temperature, and incubated overnight at 4° C. or 2 hours at room temperature with various primary antibodies. […]
For orientation: In western blotting, separated proteins are transferred to a membrane and probed.

For a further assay, the system named is lamin A. Nature of the assay: Western blot of lamin A protein in HGPS fibroblasts. The conditions noted are these: 48 h treatment with MG132 (10 μM). The protocol: as §1
The next assay relates to SRSF-1. Nature of the assay: SRSF-1 levels in HGPS fibroblasts, iPS-MSC and iPS-VSMC. The conditions noted are these: data not shown. How it is done:
(§2) Generation of induced pluripotent stem cells (iPS) by reprogramming was carried out using fibroblasts isolated from HGPS patient biopsies performed in the Assistance Publique Hopitaux de Marseille (13-8243) or provided by Coriell Institute (Camden, USA) (AG01972). Cell lines were reprogrammed to iPSC using Yamanaka's original method based on retrovirus-mediated transfection of four transcription factors, namely Oct3/4, Sox2, c-Myc, and Klf4 (41). The iPSC lines were amplified up to the 15th passage before differentiation.
(§3) HGPS iPSC were grown on STO mouse fibroblasts, inactivated with […] mitomycin C, seeded at 30,000/cm2 and grown as previously described (42). For differentiation, iPSC were differentiated into mesenchymal stem cells (MSC-iPSC) using directed protocols for differentiation previously published (43-45). VSMC were obtained from iPSC by fluorescent-activated cell sorting (FACS) separation of CD31+ cells (46).

The subject of assay [1] is progerin. The assay is described as follows: Progerin levels in HGPS iPS-derived MSC and VSMC. The conditions noted are these: data not shown. How it is done:
as §2, §3
To determine whether MG132 also influences the level of progerin in other cell lineages, the inventors generated iPSC from HGPS patients' fibroblasts. Mesenchymal Stem Cells (MSC) and Vascular Smooth Muscle Cells (VSMC) derived from HGPS iPSC presented the commonly described abnormalities of HGPS fibroblasts, namely, loss of proliferation capacities, premature senescence and nuclear blebbing (69, 70). […]

The subject of assay [2] is progerin. The assay is described as follows: Immunofluorescence of subcellular progerin localization. The note with it: HGPS cell lines, 48 h MG132 exposure. How it is done: Cells collected by centrifugation were spread onto polylysine-coated slides by centrifugation (300 rpm for 5 minutes) with a cytospin (Shandon). Cells were then fixed at room temperature for 10 minutes in 2% (w/v) paraformaldehyde in PBS pH 7.2. Slides were stored at −80° C. prior to use. Cells were permeabilized using 100 μL permeabilization buffer (0.5% Triton X-100, 50 mM NaCl, 300 mM sucrose, 20 mM HEPES pH 7.5, 3 mM MgCl2) for 3 minutes at RT. Non-specific antibody binding was blocked with 3% Bovine Serum Albumin in PBS (w/v) (PBS-BSA) for 30 minutes. The permeabilized cells were incubated with the primary antibodies for 3 h at 37° C. After washing, the cells were then incubated with secondary antibodies (A11001, A11058, Life Technologies; 1/400) for 20 minutes at 37° C. Nuclei were stained with DAPI (50 ng/ml) diluted in Vectashield (Abcys) for 10 minutes at RT. Samples were fixed in 4% paraformaldehyde for 5 min. […]
It has been reported that the MG132 can lead to PML-NBs component proteins being translocated into the nucleolus. […] Therefore, nucleolus might function as an alternative sequestration site that immobilizes and temporarily stores accumulated progerin when proteasome-dependent degradation is blocked, as the inventors detected PML and LC3B cytosolic colocalization upon 24 h MG132 treatment (data not shown). […]

A further assay has as its system LC3B-II. The assay is described as follows: Western blot of LC3B-II (autophagy level) in HGPS fibroblasts. The conditions noted are these: HGPS fibroblasts following MG132 treatment. How it is done:
as §1

As for `CC(C)C[C@@H](C=O)NC(=O)[C@H](CC(C)C)NC(=O)[C@H](CC(C)C)NC(=O)OCc1ccccc1` [MG132, Z-Leu-Leu-Leu-al] (Cbz-Leu-Leu-Leu-aldehyde), the “lamin C protein levels” value in the assay with lamin C was “increased”. In addition, the “lamin A protein levels” value with lamin A is listed as “increased”. For the same compound, the SRSF-1 levels result in the assay on SRSF-1 was “decreased”. In the assay on progerin [1] (HGPS fibroblasts, iPS-MSC and iPS-VSMC), the progerin levels result is on record as “decreased”. Further, the “concentration from which progerin reduction is significant” value in the assay on progerin [1] (iPS-VSMC, progerin immunostaining) is not below 1.25 µM. Besides, the subcellular progerin localization entry in the assay with progerin [2] was “progerin accumulates into autophagic vacuoles”. Also, in the assay with LC3B-II, the LC3B-II levels result is on record as “increased”.
